Values of other authors in US20250057962A1, “PROCESSABLE COMPOSITIONS AND USE FOR THE SAME” (Ripple Therapeutics Corporation, priority 2021, published 2025).

Settings: given once a day

CC(C)OC(=O)CCC/C=C\C[C@@H]1[C@@H](CC[C@@H](O)CCc2ccccc2)[C@H](O)C[C@@H]1O [latanoprost]
mean IOP lowering: about 35%
